Source: patent publication US9896441B2 (Lycera Corporation, priority 2014, dated 2018)

What was measured:
RORγ-LBD = target: T1, RORγ-LBD (Homo sapiens, UniProt P51449); assay: RORγ-Ligand Binding Domain (LBD) TR-FRET Assay; format: biochemical; conditions: for TR-FRET Assay Max Response: maximum response;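 on TR-FRET Assay Max Response: 665/615 nm signal ratio set to 100 without ursolic acid or test compound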
T1 construct: made in house; host or cells: SF9 cells (baculovirus); used as diluted lysate
T1 sequence (P51449 269-508 limits assumed): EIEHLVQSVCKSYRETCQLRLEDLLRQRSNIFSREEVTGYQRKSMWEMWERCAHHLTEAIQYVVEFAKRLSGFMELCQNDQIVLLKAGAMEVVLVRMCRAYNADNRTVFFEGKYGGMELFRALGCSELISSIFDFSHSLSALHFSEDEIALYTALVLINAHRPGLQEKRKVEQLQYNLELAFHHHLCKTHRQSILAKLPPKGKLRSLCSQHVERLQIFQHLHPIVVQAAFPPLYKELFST
How it was run: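 TR-FRET read-out using a biotin-tagged SRC1 coactivator LXXLL peptide (200 nM final), with the antagonist ursolic acid present at 2 μM final. Receptor is His-tagged LBD expressed in SF9 cells, ~3 nM final in pH 7.0 Tris/KCl/EDTA/DTT/BSA buffer; compounds in 1% DMSO final.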

Gal4-RORγ-LBD = target: T2, Gal4-RORγ-LBD (Homo sapiens, UniProt P51449); assay: Gal4-RORγ Luciferase Reporter Assay in HEK-293T Cells; format: cell-based; conditions: HEK-293 cells; for Gal4-RORγ Assay Max Response: maximum response
T2 construct: expressed in transfected cells
T2 sequence (P51449 269-508 limits assumed): T1 sequence (P51449 269-508 limits assumed)
How it was run: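 Max Response was taken as the upper plateau of a 4-parameter logistic fit of luciferase signal, normalized to 100 for wells without ursolic acid or compound. Transiently Gal4-RORγ-LBD/Gal4-luc transfected HEK-293 cells carrying […] ursolic acid were incubated with test compounds (0.2% DMSO) overnight at 37 °C and read with One-Glo.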

[1] = luciferase reporter, in presence of ursolic acid
[2] = luciferase reporter, with ursolic acid

Compound	EC50 (RORγ-LBD; RORγ-LBD TR-FRET assay)	TR-FRET Assay Max Response (RORγ-LBD; RORγ-LBD TR-FRET assay)	EC50 (Gal4-RORγ-LBD; [1])	Gal4-RORγ Assay Max Response (Gal4-RORγ-LBD; [1])	EC50 (RORγ-LBD; RORγ-LBD TR-FRET)	EC50 (Gal4-RORγ-LBD; [2])	further results
C/C(=C\c1ccc2c(c1)N(S(=O)(=O)c1cccc(C(F)(F)F)c1)C[C@H](CC(=O)O)O2)c1c(F)cccc1Cl [Example 107, (S,E)-2-(6-(2-(2-Chloro-6-fluorophenyl)prop-1-en-1-yl)-4-((3-(trifluoromethyl)phenyl)sulfonyl)-3,4-dihydro-2H-benzo[b][1,4]oxazin-2-yl)acetic acid]	< 500 nM	** (a value in the range of greater than 90 to 150)	500 to 5000 nM	** (a value in the range of greater than 90 to 150)	–	–	–
C/C(=C\c1ccc2c(c1)N(S(=O)(=O)c1cccc(C(F)(F)F)c1)C[C@H](CCC(=O)N1CC[C@@H](C(=O)O)C1)O2)c1c(F)cccc1Cl [Example 129B, (R)-1-(3-((S)-6-((E)-2-(2-chloro-6-fluorophenyl)-prop-1-en-1-yl)-4-((3-(trifluoromethyl)phenyl)sulfonyl)-3,4-dihydro-2H-benzo[b][1,4]oxazin-2-yl)propanoyl)pyrrolidine-3-carboxylic acid]	< 500 nM	**** (a value greater than 200)	< 500 nM	** (a value in the range of greater than 90 to 150)	–	–	–
COc1cc(S(=O)(=O)N2C[C@H](CNC(C)=O)Oc3c(F)cc(/C=C(\C)c4c(F)cccc4Cl)cc32)ccc1F [Example 108, (S,E)-N-((6-(2-(2-Chloro-6-fluorophenyl)prop-1-en-1-yl)-8-fluoro-4-((4-fluoro-3-methoxyphenyl)sulfonyl)-3,4-dihydro-2H-benzo[b][1,4]oxazin-2-yl)methyl)acetamide]	< 500 nM	** (a value in the range of greater than 90 to 150)	< 500 nM	* (a value in the range of 30 to 90)	–	–	–
CC1CCCC/C1=C\c1ccc2c(c1)N(S(=O)(=O)c1cccc(C(F)(F)F)c1)C[C@H](CCC(=O)O)O2 (stereo partly drawn) [Example 95Q, 3-((2S)-6-((E)-(2-methylcyclohexylidene)methyl)-4-((3-(trifluoromethyl)phenyl)-sulfonyl)-3,4-dihydro-2H-benzo[b][1,4]oxazin-2-yl)propanoic acid]	–	–	–	–	< 500 nM	< 500 nM	–
CCOc1nn(CC)cc1S(=O)(=O)N1C[C@H](CCC(=O)O)Oc2ccc(/C=C(\C)c3c(Cl)cccc3C(F)(F)F)cc21 [Example 86AW, (S,E)-3-(6-(2-(2-chloro-6-(trifluoromethyl)phenyl)prop-1-en-1-yl)-4-((3-ethoxy-1-ethyl-1H-pyrazol-4-yl)sulfonyl)-3,4-dihydro-2H-benzo[b][1,4]oxazin-2-yl)propanoic acid]	–	–	–	–	< 500 nM	< 500 nM	–
CCn1cc(S(=O)(=O)N2C[C@H]([C@H](C)O)Oc3ccc(/C=C(\C)c4c(F)cccc4Cl)cc32)c(Cl)n1 [Example 97, (S)-1-((R)-4-((3-Chloro-1-ethyl-1H-pyrazol-4-yl)sulfonyl)-6-((E)-2-(2-chloro-6-fluorophenyl)prop-1-en-1-yl)-3,4-dihydro-2H-benzo[b][1,4]oxazin-2-yl)ethan-1-ol]	–	–	–	–	< 500 nM	< 500 nM	–
C/C(=C\c1ccc2c(c1)N(S(=O)(=O)c1cccc(C(F)(F)F)c1)C[C@H](CCC(=O)N1CC(C)(C(=O)O)C1)O2)c1c(F)cccc1Cl [Example 129I, (S,E)-1-(3-(6-(2-(2-chloro-6-fluorophenyl)-prop-1-en-1-yl)-4-((3-(trifluoromethyl)phenyl)sulfonyl)-3,4-dihydro-2H-benzo[b][1,4]oxazin-2-yl)propanoyl)-3-methylazetidine-3-carboxylic acid]	< 500 nM	*** (a value in the range of greater than 150 to 200)	< 500 nM	** (a value in the range of greater than 90 to 150)	–	–	–
O=C(O)CC[C@H]1CN(S(=O)(=O)c2cccc(OC(F)F)c2)c2cc(/C=C/c3ncccn3)ccc2O1 [Example 89G, (S,E)-3-(4-((3-(difluoromethoxy)-phenyl)sulfonyl)-6-(2-(pyrimidin-2-yl)vinyl)-3,4-dihydro-2H-benzo[b][1,4]oxazin-2-yl)propanoic acid]	–	–	–	–	500 to 5000 nM	> 10000 nM	–
O=C(O)C1Cc2ccc(/C=C/c3c(Cl)cccc3C(F)(F)F)cc2N(S(=O)(=O)c2cccc(C(F)(F)F)c2)C1 (centres unmarked) [Example 15D, (E)-7-(2-chloro-6-(trifluoromethyl)styryl)-1-((3-(trifluoromethyl)phenyl)sulfonyl)-1,2,3,4-tetrahydroquinoline-3-carboxylic acid]	–	–	–	–	< 500 nM	500 to 5000 nM	–
CCOc1nn(CC)cc1S(=O)(=O)N1C[C@H](CCC(=O)OC)Oc2ccc(/C=C/c3c(C)cccc3F)cc21 [Example 89AH, (S,E)-methyl 3-(4-((3-ethoxy-1-ethyl-1H-pyrazol-4-yl)sulfonyl)-6-(2-fluoro-6-methylstyryl)-3,4-dihydro-2H-benzo[b][1,4]-oxazin-2-yl)propanoate]	–	–	–	–	< 500 nM	< 500 nM	–
C[C@H]1CN(S(=O)(=O)c2cc(C(F)(F)F)cnc2OCCO)c2cc(/C=C/c3c(Cl)cccc3C(F)(F)F)ccc2O1 [Example 89EX, (S,E)-2-((3-((6-(2-chloro-6-(trifluoromethyl)styryl)-2-methyl-2,3-dihydro-4H-benzo[b][1,4]oxazin-4-yl)sulfonyl)-5-(trifluoromethyl)-pyridin-2-yl)oxy)ethan-1-ol]	–	–	–	–	< 500 nM	500 to 5000 nM	–
C/C(=C\c1ccc2c(c1)N(S(=O)(=O)c1cccc(C(F)(F)F)c1)C[C@H](CCCN1CCC(C(=O)O)CC1)O2)c1c(F)cccc1Cl [Example 123, (S,E)-1-(3-(6-(2-(2-Chloro-6-fluorophenyl)prop-1-en-1-yl)-4-((3-(trifluoromethyl)phenyl)sulfonyl)-3,4-dihydro-2H-benzo[b][1,4]oxazin-2-yl)propyl)piperidine-4-carboxylic acid]	< 500 nM	** (a value in the range of greater than 90 to 150)	500 to 5000 nM	** (a value in the range of greater than 90 to 150)	–	–	–
COC(=O)CC[C@H]1CN(S(=O)(=O)c2ccc(F)c(Cl)c2)c2cc(/C=C(\C)c3c(F)cccc3Cl)ccc2O1 [Example 86F, (S,E)-methyl 3-(4-((3-chloro-4-fluorophenyl)sulfonyl)-6-(2-(2-chloro-6-fluorophenyl)prop-1-en-1-yl)-3,4-dihydro-2H-benzo-[b][1,4]oxazin-2-yl)propanoate]	–	–	–	–	< 500 nM	< 500 nM	–
CCn1cc(S(=O)(=O)N2C[C@H](CCC(=O)O)Oc3ccc(/C=C(\C)c4c(F)cccc4Cl)cc32)c(Cl)n1 [Example 86G, (S,E)-3-(4-((3-chloro-1-ethyl-1H-pyrazol-4-yl)sulfonyl)-6-(2-(2-chloro-6-fluorophenyl)prop-1-en-1-yl)-3,4-dihydro-2H-benzo[b][1,4]oxazin-2-yl)propanoic acid]	–	–	–	–	< 500 nM	500 to 5000 nM	–
COC(=O)CC[C@H]1CN(S(=O)(=O)c2cc(C(F)(F)F)cnc2OC[C@H](C)O)c2cc(/C=C/c3c(F)cccc3Cl)ccc2O1 [Example 89FN, methyl 3-((S)-6-((E)-2-chloro-6-fluorostyryl)-4-((2-((S)-2-hydroxypropoxy)-5-(trifluoromethyl)pyridin-3-yl)sulfonyl)-3,4-dihydro-2H-benzo[b][1,4]oxazin-2-yl)propanoate]	–	–	–	–	< 500 nM	500 to 5000 nM	–
O=C(O)CC[C@H]1CN(S(=O)(=O)c2cccc(C(F)(F)F)c2)c2cc(/C=C3\CC4CCC3C4)ccc2O1 (stereo partly drawn) [Example 95S, 3-((2S)-6-((E)-bicyclo[2.2.1]heptan-2-ylidenemethyl)-4-((3-(trifluoromethyl)phenyl)sulfonyl)-3,4-dihydro-2H-benzo[b][1,4]oxazin-2-yl)propanoic acid]	–	–	–	–	< 500 nM	< 500 nM	–
C/C(=C\c1ccc2c(c1)N(S(=O)(=O)c1cc(C(F)(F)F)cnc1OCCO)C[C@H](CCC(=O)N1CCC(C(=O)O)CC1)O2)c1c(F)cccc1Cl [Example 129K, (S,E)-1-(3-(6-(2-(2-chloro-6-fluorophenyl)-prop-1-en-1-yl)-4-((2-(2-hydroxyethoxy)-5-(trifluoromethyl)pyridin-3-yl)sulfonyl)-3,4-dihydro-2H-benzo[b][1,4]oxazin-2-yl)propanoyl)piperidine-4-carboxylic acid]	< 500 nM	*** (a value in the range of greater than 150 to 200)	500 to 5000 nM	** (a value in the range of greater than 90 to 150)	–	–	–
C[C@H]1CN(S(=O)(=O)c2ccc(F)cc2)c2cc(COc3c(F)cccc3Cl)ccc2O1	–	–	–	–	–	–	EC50 (RORγ-LBD; with 2 μM ursolic acid (RORγ antagonist), highest test concentration 10 μM): < 500 nM; EC50 (Gal4-RORγ-LBD; ursolic acid present, luciferase readout): 5000 to 10000 nM
COC(=O)CC[C@H]1CN(S(=O)(=O)c2cccc(OC(F)(F)F)c2)c2cc(/C=C(\C)c3c(F)cccc3Cl)ccc2O1 [Example 86T, (S,E)-methyl 3-(6-(2-(2-chloro-6-fluorophenyl)prop-1-en-1-yl)-4-((3-(trifluoromethoxy)phenyl)-sulfonyl)-3,4-dihydro-2H-benzo[b][1,4]oxazin-2-yl)propanoate]	–	–	–	–	< 500 nM	500 to 5000 nM	–
